In US12318455B2, “Anti-HER2 antibody-drug conjugate and application thereof” (HANGZHOU ADCORIS BIOPHARMA CO., LTD., priority 2016, dated 2025):

What was measured:
Format in all cases: cell-based
MDA453 = assay: Tumor cell inhibition experiment (CCK-8), MDA453; conditions: MDA453, HER2 2+, 3 days, read-out: IC50 values (nM) of anti-HER2 antibody-drug conjugates to HER2-expressing tumor cells
Protocol: (§1) This example examined the inhibitory activity of the antibody-drug conjugates of the present invention on HER2-positive cells. The tumor cell lines in this example were all purchased from ATCC, USA.
(§2) The experimental steps are as follows:
(§3) The cells were digested, collected by centrifugation, counted, and the cell liquid was diluted to 0.4-2.0×10^5 cells/ml, and 100 μl of said cell suspension was added to each well of a 96-well plate. The cells were cultured overnight in a 37° C. cell culture incubator, and ADC drugs with corresponding concentration was added the next day. The initial concentration of the drug was 1-15 μg/ml, and was diluted in 3-fold equal-gradient with a total of 9 concentration gradients. Finally, a set of zero-concentration cell were set as controls. After addition of drug, the cells were cultured for 3 days, and the drug-containing medium was sucked. 100 μl of 10% CCK-8 solution was added to each well, and incubated at 37° C. for 1-2 h, and then absorbance intensity of each well was detected at 490 nm with a microplate reader. The data was imported into a mapping software, the curve was fitted, and IC50 values were calculated.

HCC1954 = assay: Tumor cell inhibition experiment (CCK-8), HCC1954; conditions: HCC1954, HER2 3+, 3 days, read-out: IC50 values (nM) of anti-HER2 antibody-drug conjugates to HER2-expressing tumor cells
Protocol: as §1, §2, §3

BT474 = assay: Tumor cell inhibition experiment (CCK-8), BT474; conditions: BT474, HER2 3+, 3 days, read-out: IC50 values (nM) of anti-HER2 antibody-drug conjugates to HER2-expressing tumor cells
Protocol: as §1, §2, §3

SKBR-3 = assay: Tumor cell inhibition experiment (CCK-8), SKBR-3; conditions: SKBR-3, HER2 3+, 3 days, read-out: IC50 values (nM) of anti-HER2 antibody-drug conjugates to HER2-expressing tumor cells
Protocol: as §1, §2, §3

NCI-N87 = assay: Tumor cell inhibition experiment (CCK-8), NCI-N87; conditions: NCI-N87, HER2 3+, 3 days, read-out: IC50 values (nM) of anti-HER2 antibody-drug conjugates to HER2-expressing tumor cells
Protocol: as §1, §2, §3

OE-19 = assay: Tumor cell inhibition experiment (CCK-8), OE-19; conditions: OE-19, HER2 3+, 3 days, read-out: IC50 values (nM) of anti-HER2 antibody-drug conjugates to HER2-expressing tumor cells
Protocol: as §1, §2, §3

Substance: T-DM1
- IC50 (MDA453): 0.259 nM
- IC50 (HCC1954): 0.159 nM
- IC50 (BT474): 0.622 nM
- IC50 (SKBR-3): 0.114 nM
- IC50 (NCI-N87): 0.548 nM
- IC50 (OE-19): 0.099 nM
